How the values were obtained:
[1] = test system: rat primary hippocampal neurons; assay: Intracellular calcium imaging in hippocampal neurons; assay type: cell-based
Description: The [Ca^2+]i in hippocampal neurons was measured by ratiometric Ca^2+ imaging with the Ca^2+-sensitive fluorescent dye fura-2. Prior to imaging, hippocampal neurons were loaded with 2 μM fura-2 acetoxymethyl ester (fura-2 AM, Molecular Probes, Inc., Eugene, Oreg.) for 30-45 min at 37° C. in HEPES-Buffered Solution (HBS), containing (in mM): 100 NaCl, 2.0 KCl, 1.0 CaCl2, 1.0 MgCl2, 1.0 NaH2PO4, 4.2 NaHCO3, 12.5 HEPES and 10.0 glucose. Excess fura-2 AM dye was removed by washing with HBS and then the neurons were incubated in HBS for 30 min at 37° C. to equilibrate. The coverslip with fura-2 AM-loaded neurons was removed and attached to the coverslip clamp chamber MS-502S (ALA Scientific Instruments, Westbury, N.Y.) for the Ca^2+ imaging analysis. Neurons were placed on the stage of an inverted microscope (MT-2, Olympus) equipped with epifluorescence optics (20× Nikon), The perfusion solution is HBS and the perfusion system connected to the perfusion chamber was balanced using two variable speed pumps. Imaging was performed at room temperature. Neurons were perfused at a flow rate of 2 ml/min. Fura-2 was excited by a xenon light source at 340 and 380 nm. The emitted fluorescence was filtered through a 520 nm filter, captured with an intensified CCD camera (COHU) and analyzed with InCyt Im2 software (Intracellular Imaging, Cincinnati, Ohio). The concentration of Ca^2+ was calculated by comparing the ratio of fluorescence at 340 and 380 nm against a standard curve of known [Ca^2+].

ERK2 = assay: ERK phosphorylation, Western immunoblotting; details: primary hippocampal neurons
Bcl-2 [2] = assay: Bcl-2 expression, Western immunoblotting; details: primary hippocampal neurons
Bcl-XL = details: previously observed; cited from earlier work
MCF-7 cells = assay: MCF-7 cell proliferation, MTT; assay type: cell-based, human; details: 3 days, serially diluted concentrations, MTT at 570 nm
[3] = test system: rat primary hippocampal neurons; details: previous reports; cited from earlier work
Bcl-2 [4] = details: previously observed; cited from earlier work
spinophilin = details: primary neurons, earlier findings; cited from earlier work

With `C[C@]12CCC3c4ccc(O)cc4CC(CCCCCCCCC[S+]([O-])CCCC(F)(F)C(F)(F)F)C3C1CC[C@@H]2O` (stereo partly shown) [ICI 182,780] the intracellular calcium rise ([1]; compound alone) was “directly induce intracellular calcium rise”, the “physiological glutamate-induced rise in calcium ion concentration” value ([1]; physiological glutamate) was “potentiates the physiological glutamate-induced rise in calcium ion concentration” and the “excitotoxic glutamate-induced rise in intracellular calcium” value ([1]; pretreated neurons, excitotoxic glutamate) was “attenuation of the glutamate-induced rise in intracellular calcium”. The “phosphorylation of ERK” value (ERK2) was “activate the phosphorylation of ERK”, the “expression of antiapoptotic protein Bcl-2” value (Bcl-2 [2]) was “potentiate the expression of antiapoptotic protein Bcl-2” and the Bcl-XL expression (Bcl-XL) was “Upregulation”. For the same molecule, the MCF-7 cell proliferation (MCF-7 cells) was “promoted MCF-7 cell proliferation in a concentration dependent manner”, the “concentration of maximal neuroprotection” value [3] was 10 nM and the Bcl-2 expression (Bcl-2 [4]) was “Upregulation”. The spinophilin expression (spinophilin) was “comparably effective to 17β-estradiol in upregulating spinophilin expression”.

Reference: US20080200441A1, “ESTROGEN RECEPTOR MODULATORS ASSOCIATED PHARMACEUTICAL COMPOSITIONS AND METHODS OF USE” (University of Southern California, priority 2007, published 2008)
